Measured values taken from the NIST ThermoML archive (doi:10.1021/je800925v).

Experiment: xn = mol fraction of the nth substance listed
Details: Liquid

CCCCCCCC [octane] + CCO
Details | mass density [kg/m3] | viscosity [mPa·s]
273.15 K, x2 = 0.095 | 713.3 | 0.6185
273.15 K, x2 = 0.192 | 715.9 | 0.6401
273.15 K, x2 = 0.294 | 719.6 | 0.698
273.15 K, x2 = 0.399 | 725.5 | 0.7603
273.15 K, x2 = 0.496 | 732.2 | 0.8635
273.15 K, x2 = 0.602 | 740.1 | 0.9516
273.15 K, x2 = 0.691 | 752 | 1.103
273.15 K, x2 = 0.807 | 763.9 | 1.262
273.15 K, x2 = 0.911 | 781 | 1.459
275.65 K, x2 = 0.095 | 709.2 | 0.6003
275.65 K, x2 = 0.192 | 713.9 | 0.6206
275.65 K, x2 = 0.294 | 719.5 | 0.6743
275.65 K, x2 = 0.399 | 723.4 | 0.7329
275.65 K, x2 = 0.496 | 731.5 | 0.828
275.65 K, x2 = 0.602 | 738 | 0.9122
275.65 K, x2 = 0.691 | 749.9 | 1.054
275.65 K, x2 = 0.807 | 761.7 | 1.203
275.65 K, x2 = 0.911 | 778.9 | 1.389
278.15 K, x2 = 0.095 | 707.2 | 0.583
278.15 K, x2 = 0.192 | 711.8 | 0.6019
278.15 K, x2 = 0.294 | 717.2 | 0.652
278.15 K, x2 = 0.399 | 721.3 | 0.7069
278.15 K, x2 = 0.496 | 729.4 | 0.7951
278.15 K, x2 = 0.602 | 735.9 | 0.8751
278.15 K, x2 = 0.691 | 747.8 | 1.008
278.15 K, x2 = 0.807 | 759.7 | 1.148
278.15 K, x2 = 0.911 | 776.8 | 1.323
280.65 K, x2 = 0.095 | 705.1 | 0.5664
280.65 K, x2 = 0.192 | 708.5 | 0.5841
280.65 K, x2 = 0.294 | 714.8 | 0.6308
280.65 K, x2 = 0.399 | 719.2 | 0.6822
280.65 K, x2 = 0.496 | 725.2 | 0.7643
280.65 K, x2 = 0.602 | 733.8 | 0.8399
280.65 K, x2 = 0.691 | 745.7 | 0.9555
280.65 K, x2 = 0.807 | 757.6 | 1.097
280.65 K, x2 = 0.911 | 774.7 | 1.26
283.15 K, x2 = 0.095 | 703 | 0.5505
283.15 K, x2 = 0.192 | 706.4 | 0.5669
283.15 K, x2 = 0.294 | 712.5 | 0.6105
283.15 K, x2 = 0.399 | 717.1 | 0.6587
283.15 K, x2 = 0.496 | 723.1 | 0.7348
283.15 K, x2 = 0.602 | 731.7 | 0.8067
283.15 K, x2 = 0.691 | 743.6 | 0.9146
283.15 K, x2 = 0.807 | 755.4 | 1.047
283.15 K, x2 = 0.911 | 772.6 | 1.202
285.65 K, x2 = 0.095 | 701 | 0.5351
285.65 K, x2 = 0.192 | 704.3 | 0.5505
285.65 K, x2 = 0.294 | 710.2 | 0.5906
285.65 K, x2 = 0.399 | 715 | 0.6363
285.65 K, x2 = 0.496 | 723.1 | 0.707
285.65 K, x2 = 0.602 | 729.6 | 0.7758
285.65 K, x2 = 0.691 | 741.5 | 0.8763
285.65 K, x2 = 0.807 | 753.3 | 1.002
285.65 K, x2 = 0.911 | 770.5 | 1.147
288.15 K, x2 = 0.095 | 698.9 | 0.5207
288.15 K, x2 = 0.192 | 702.2 | 0.5347
288.15 K, x2 = 0.294 | 708.1 | 0.5721
288.15 K, x2 = 0.399 | 712.9 | 0.615
288.15 K, x2 = 0.496 | 721 | 0.6805
288.15 K, x2 = 0.602 | 727.5 | 0.7453
288.15 K, x2 = 0.691 | 739.4 | 0.8411
288.15 K, x2 = 0.807 | 751.2 | 0.958
288.15 K, x2 = 0.911 | 768.4 | 1.095
290.65 K, x2 = 0.095 | 696.8 | 0.5072
290.65 K, x2 = 0.192 | 700.1 | 0.5195
290.65 K, x2 = 0.294 | 705.9 | 0.5541
290.65 K, x2 = 0.399 | 710.8 | 0.5946
290.65 K, x2 = 0.496 | 718.9 | 0.6543
290.65 K, x2 = 0.602 | 725.3 | 0.7168
290.65 K, x2 = 0.691 | 737.2 | 0.8071
290.65 K, x2 = 0.807 | 749.1 | 0.9164
290.65 K, x2 = 0.911 | 766.3 | 1.046
293.15 K, x2 = 0 | 705.6 | 0.5374
293.15 K, x2 = 0.095 | 694.7 | 0.4931
293.15 K, x2 = 0.192 | 698 | 0.5049
293.15 K, x2 = 0.294 | 703.8 | 0.5366
293.15 K, x2 = 0.399 | 708.6 | 0.5752
293.15 K, x2 = 0.496 | 716.8 | 0.6298
293.15 K, x2 = 0.602 | 723.2 | 0.6899
293.15 K, x2 = 0.691 | 735.1 | 0.7742
293.15 K, x2 = 0.807 | 746.9 | 0.8781
293.15 K, x2 = 0.911 | 764.1 | 0.9997
295.65 K, x2 = 0.095 | 692.6 | 0.4796
295.65 K, x2 = 0.192 | 695.9 | 0.4908
295.65 K, x2 = 0.294 | 701.7 | 0.5197
295.65 K, x2 = 0.399 | 706.5 | 0.5566
295.65 K, x2 = 0.496 | 714.7 | 0.6039
295.65 K, x2 = 0.602 | 721.1 | 0.6643
295.65 K, x2 = 0.691 | 732.9 | 0.7428
295.65 K, x2 = 0.807 | 744.7 | 0.8415
295.65 K, x2 = 0.911 | 762 | 0.956
298.15 K, x2 = 0 | 701.6 | 0.5087
298.15 K, x2 = 0.095 | 690.5 | 0.4675
298.15 K, x2 = 0.192 | 693.8 | 0.477
298.15 K, x2 = 0.294 | 699.6 | 0.5022
298.15 K, x2 = 0.399 | 704.3 | 0.5386
298.15 K, x2 = 0.496 | 712.6 | 0.5828
298.15 K, x2 = 0.602 | 718.9 | 0.6396
298.15 K, x2 = 0.691 | 730.8 | 0.7137
298.15 K, x2 = 0.807 | 742.6 | 0.8061
298.15 K, x2 = 0.911 | 759.8 | 0.925
